Measurements published in patent US20260053811A1, “METHODS OF TREATING HYPERTENSION IN OBESE SUBJECTS” (Mineralys Therapeutics, Inc., priority 2022, published 2026).

System: hypertensive subjects
Experiment: Adverse events (TEAEs, SAEs, AESI, study drug discontinuation, dose modification);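 note: counts of spontaneously reported adverse events in the Safety Analysis Set, subjects grouped by treatment actually received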
Type: in vivo, human
Settings: Part 1
Excerpt: In analyses performed on the Safety Analysis Set, subjects will be analyzed according to their actual treatment received.

CC(=O)N[C@H]1CC[C@H](NC(=O)CN2CCN(c3nncc(-c4ccc(C)cc4)n3)CC2)CC1 [Compound A HBr]
On-treatment TEAE: General disorders and administration site conditions (50 mg QD (N = 28)): 2 (7.1) n (%) | On-treatment TEAE: General disorders and administration site conditions, Mild (50 mg QD (N = 28)): 1 (3.6) n (%) | On-treatment TEAE: Glomerular filtration rate decreased (50 mg QD (N = 28)): 0 n (%) | On-treatment TEAE: Headache (50 mg QD (N = 28)): 1 (3.6) n (%) | On-treatment TEAE: Headache, Mild (50 mg QD (N = 28)): 1 (3.6) n (%) | On-treatment TEAE: Hyperkalaemia (50 mg QD (N = 28)): 3 (10.7) n (%) | On-treatment TEAE: Hyperkalaemia, Mild (50 mg QD (N = 28)): 3 (10.7) n (%) | On-treatment TEAE: Hyperkalaemia, Moderate (50 mg QD (N = 28)): 0 n (%) | On-treatment TEAE: Hyperkalaemia, Severe (50 mg QD (N = 28)): 0 n (%) | On-treatment TEAE: Hypertension (50 mg QD (N = 28)): 2 (7.1) n (%) | On-treatment TEAE: Hypertension, Moderate (50 mg QD (N = 28)): 2 (7.1) n (%) | On-treatment TEAE: Infections and infestations (50 mg QD (N = 28)): 2 (7.1) n (%) | On-treatment TEAE: Infections and infestations, Mild (50 mg QD (N = 28)): 0 n (%) | On-treatment TEAE: Infections and infestations, Moderate (50 mg QD (N = 28)): 2 (7.1) n (%) | On-treatment TEAE: Investigations (50 mg QD (N = 28)): 1 (3.6) n (%) | On-treatment TEAE: Investigations, Mild (50 mg QD (N = 28)): 1 (3.6) n (%) | On-treatment TEAE: Investigations, Moderate (50 mg QD (N = 28)): 0 n (%) | On-treatment TEAE: Metabolism and nutrition disorders (50 mg QD (N = 28)): 5 (17.9) n (%) | On-treatment TEAE: Metabolism and nutrition disorders, Mild (50 mg QD (N = 28)): 5 (17.9) n (%) | On-treatment TEAE: Metabolism and nutrition disorders, Moderate (50 mg QD (N = 28)): 0 n (%) | On-treatment TEAE: Nervous system disorders (50 mg QD (N = 28)): 2 (7.1) n (%) | On-treatment TEAE: Nervous system disorders, Mild (50 mg QD (N = 28)): 1 (3.6) n (%) | On-treatment TEAE: Orthostatic hypotension (50 mg QD (N = 28)): 0 n (%) | On-treatment TEAE: Orthostatic hypotension, Mild (50 mg QD (N = 28)): 0 n (%) | On-treatment TEAE: Psychiatric disorders (50 mg QD (N = 28)): 0 n (%) | On-treatment TEAE: Psychiatric disorders, Moderate (50 mg QD (N = 28)): 0 n (%) | On-treatment TEAE: Urinary tract infection (50 mg QD (N = 28)): 2 (7.1) n (%) | On-treatment TEAE: Urinary tract infection, Mild (50 mg QD (N = 28)): 1 (3.6) n (%) | On-treatment TEAE: Vascular disorders (50 mg QD (N = 28)): 2 (7.1) n (%) | On-treatment TEAE: Vascular disorders, Mild (50 mg QD (N = 28)): 0 n (%) | On-treatment TEAE: Vascular disorders, Moderate (50 mg QD (N = 28)): 2 (7.1) n (%) | On-treatment TEAE: any, Mild (50 mg QD (N = 28)): 4 (14.3) n (%) | On-treatment TEAE: any, Moderate (50 mg QD (N = 28)): 6 (21.4) n (%) | On-treatment TEAE: any, Severe (50 mg QD (N = 28)): 0 n (%) | Subjects with any On-treatment TEAEs leading to withdrawal from study drug (50 mg QD (N = 28)): 0 n (%) | TEAE leading to permanent discontinuation from study drug: Activated partial thromboplastin time prolonged (50 mg QD (N = 28)): 0 n (%) | TEAE leading to permanent discontinuation from study drug: Cardiac disorders (50 mg QD (N = 28)): 0 n (%) | TEAE leading to permanent discontinuation from study drug: Coronary artery disease (50 mg QD (N = 28)): 0 n (%) | TEAE leading to permanent discontinuation from study drug: Dizziness (50 mg QD (N = 28)): 0 n (%) | TEAE leading to permanent discontinuation from study drug: Hyperkalaemia (50 mg QD (N = 28)): 0 n (%) | TEAE leading to permanent discontinuation from study drug: Hypertension (50 mg QD (N = 28)): 0 n (%) | TEAE leading to permanent discontinuation from study drug: Hypotension (50 mg QD (N = 28)): 0 n (%) | TEAE leading to permanent discontinuation from study drug: Investigations (50 mg QD (N = 28)): 0 n (%) | TEAE leading to permanent discontinuation from study drug: Metabolism and nutrition disorders (50 mg QD (N = 28)): 0 n (%) | TEAE leading to permanent discontinuation from study drug: Nervous system disorders (50 mg QD (N = 28)): 0 n (%) | TEAE leading to permanent discontinuation from study drug: Orthostatic hypotension (50 mg QD (N = 28)): 0 n (%) | TEAE leading to permanent discontinuation from study drug: Vascular disorders (50 mg QD (N = 28)): 0 n (%) | On-treatment TEAE: Blood and lymphatic system disorders (100 mg QD (N = 30)): 0 n (%) | On-treatment TEAE: Blood and lymphatic system disorders, Mild (100 mg QD (N = 30)): 0 n (%) | On-treatment TEAE: Blood creatinine increased (100 mg QD (N = 30)): 3 (10.0) n (%) | On-treatment TEAE: Blood creatinine increased, Mild (100 mg QD (N = 30)): 3 (10.0) n (%) | On-treatment TEAE: Cardiac disorders (100 mg QD (N = 30)): 0 n (%) | On-treatment TEAE: Cortisol decreased (100 mg QD (N = 30)): 0 n (%) | On-treatment TEAE: Cortisol decreased, Mild (100 mg QD (N = 30)): 0 n (%) | On-treatment TEAE: Dizziness (100 mg QD (N = 30)): 0 n (%) | On-treatment TEAE: Gastrointestinal disorders (100 mg QD (N = 30)): 2 (6.7) n (%) | On-treatment TEAE: Gastrointestinal disorders, Mild (100 mg QD (N = 30)): 2 (6.7) n (%) | On-treatment TEAE: General disorders and administration site conditions (100 mg QD (N = 30)): 0 n (%) | On-treatment TEAE: General disorders and administration site conditions, Mild (100 mg QD (N = 30)): 0 n (%) | On-treatment TEAE: Glomerular filtration rate decreased (100 mg QD (N = 30)): 5 (16.7) n (%) | On-treatment TEAE: Headache (100 mg QD (N = 30)): 0 n (%) | On-treatment TEAE: Headache, Mild (100 mg QD (N = 30)): 0 n (%) | On-treatment TEAE: Hyperkalaemia (100 mg QD (N = 30)): 8 (26.7) n (%) | On-treatment TEAE: Hyperkalaemia, Mild (100 mg QD (N = 30)): 8 (26.7) n (%) | On-treatment TEAE: Hyperkalaemia, Moderate (100 mg QD (N = 30)): 0 n (%) | On-treatment TEAE: Hyperkalaemia, Severe (100 mg QD (N = 30)): 0 n (%) | On-treatment TEAE: Hypertension (100 mg QD (N = 30)): 0 n (%) | On-treatment TEAE: Hypertension, Moderate (100 mg QD (N = 30)): 0 n (%) | On-treatment TEAE: Infections and infestations (100 mg QD (N = 30)): 2 (6.7) n (%) | On-treatment TEAE: Infections and infestations, Mild (100 mg QD (N = 30)): 0 n (%) | On-treatment TEAE: Infections and infestations, Moderate (100 mg QD (N = 30)): 2 (6.7) n (%) | On-treatment TEAE: Investigations (100 mg QD (N = 30)): 8 (26.7) n (%) | On-treatment TEAE: Investigations, Mild (100 mg QD (N = 30)): 6 (20.0) n (%) | On-treatment TEAE: Investigations, Moderate (100 mg QD (N = 30)): 2 (6.7) n (%) | On-treatment TEAE: Metabolism and nutrition disorders (100 mg QD (N = 30)): 8 (26.7) n (%) | On-treatment TEAE: Metabolism and nutrition disorders, Mild (100 mg QD (N = 30)): 8 (26.7) n (%) | On-treatment TEAE: Metabolism and nutrition disorders, Moderate (100 mg QD (N = 30)): 0 n (%) | On-treatment TEAE: Nervous system disorders (100 mg QD (N = 30)): 0 n (%) | On-treatment TEAE: Nervous system disorders, Mild (100 mg QD (N = 30)): 0 n (%) | On-treatment TEAE: Orthostatic hypotension (100 mg QD (N = 30)): 0 n (%) | On-treatment TEAE: Orthostatic hypotension, Mild (100 mg QD (N = 30)): 0 n (%) | On-treatment TEAE: Psychiatric disorders (100 mg QD (N = 30)): 2 (6.7) n (%) | On-treatment TEAE: Psychiatric disorders, Moderate (100 mg QD (N = 30)): 2 (6.7) n (%) | On-treatment TEAE: Urinary tract infection (100 mg QD (N = 30)): 1 (3.3) n (%) | On-treatment TEAE: Urinary tract infection, Mild (100 mg QD (N = 30)): 0 n (%) | On-treatment TEAE: Vascular disorders (100 mg QD (N = 30)): 1 (3.3) n (%) | On-treatment TEAE: Vascular disorders, Mild (100 mg QD (N = 30)): 0 n (%) | On-treatment TEAE: Vascular disorders, Moderate (100 mg QD (N = 30)): 1 (3.3) n (%) | On-treatment TEAE: any, Mild (100 mg QD (N = 30)): 9 (30.0) n (%) | On-treatment TEAE: any, Moderate (100 mg QD (N = 30)): 7 (23.3) n (%) | On-treatment TEAE: any, Severe (100 mg QD (N = 30)): 0 n (%) | Subjects with any On-treatment TEAEs leading to withdrawal from study drug (100 mg QD (N = 30)): 4 (13.3) n (%) | TEAE leading to permanent discontinuation from study drug: Activated partial thromboplastin time prolonged (100 mg QD (N = 30)): 1 (3.3) n (%) | TEAE leading to permanent discontinuation from study drug: Cardiac disorders (100 mg QD (N = 30)): 0 n (%) | TEAE leading to permanent discontinuation from study drug: Coronary artery disease (100 mg QD (N = 30)): 0 n (%) | TEAE leading to permanent discontinuation from study drug: Dizziness (100 mg QD (N = 30)): 0 n (%) | TEAE leading to permanent discontinuation from study drug: Hyperkalaemia (100 mg QD (N = 30)): 2 (6.7) n (%) | TEAE leading to permanent discontinuation from study drug: Hypertension (100 mg QD (N = 30)): 0 n (%) | TEAE leading to permanent discontinuation from study drug: Hypotension (100 mg QD (N = 30)): 1 (3.3) n (%) | TEAE leading to permanent discontinuation from study drug: Investigations (100 mg QD (N = 30)): 1 (3.3) n (%) | TEAE leading to permanent discontinuation from study drug: Metabolism and nutrition disorders (100 mg QD (N = 30)): 2 (6.7) n (%) | TEAE leading to permanent discontinuation from study drug: Nervous system disorders (100 mg QD (N = 30)): 0 n (%)
